Reference: EP0295827A2, “Use of 24,25-dihydroxy-cholecalciferol in mending bone fractures” (priority 1987, dated 1988)

Experiment: Acute toxicity, single oral administration
Conditions: mouse, in vivo, ICR male mice, read-out: LD₅₀ value
Protocol: 24,25-(OH)₂-D₃ in ethanol was dissolved in a triglyceride ester of a middle fatty acid so as to have an ethanol concentration of 2 %. The thus-prepared solution was orally administered to 10 ICR male mice (weight: 25 ± 3g). The dosage of 24,25-(OH)₂-D₃ was 100 mg/kg. […] When they were subjected to the biochemical blood test, anatomical examination and pathological histology after they were killed, there was no difference between the treated mice and a controlled group of mice to which only a triglyceride ester of a middle fatty acid containing 2% ethanol had been administered. Since the LD₅₀ value of the oral administration of 24,25-(OH)₂-D₃ was not less than 100 mg/kg, 24,25-(OH)₂-D₃ can be said to be very safe.

Structure (SMILES): C=C1CCC(O)CC1=CC=C1CCCC2(C)C1CCC2C(C)CCC(O)C(C)(C)O (stereo not shown) [24,25-(OH)₂-D₃, 24,25-dihydroxycholecalciferol]
- LD50 at 336 h: ≥ 100 mg/kg
